Reference: US4269848A, “5-Substituted indan-2-carboxylic acid and functional derivatives” (Lipha, Lyonnaise Industrielle Pharmaceutique, priority 1976, dated 1981)

How the values were obtained:
platelet aggregation = assay: Experiment C: clinical case studies, platelet anti-aggregation activity, oral administration; assay type: in vivo
Description: (§1) The following clinical experimentation was carried out to clinically test various compounds in accordance with the present invention for their anti-inflammatory, analgesic and platelet aggregation or clumping inhibition activites.
The following case studies relate to the platelet anti-aggregation activity associated with the oral administration of 2'-(N,N-diethylaminoethyl) 5-(2'-thenoyl)-indan-2-carboxylate.

[1] = tested on: spasms of pain caused by the intraperitoneal injection of a solution of acetic acid; assay: Analgesic activity, acetic acid induced spasms of pain (Koster et al.); assay type: in vivo; conditions: mouse, oral; dose reducing spasms of pain by 50%; read-out: AD50, Acetic Acid
Description: B--Analgesic activity in the mouse was determined by the method of Koster et al. (Fed. Proc. 1959, Vol. 18, page 412). The active dose 50 (AD50) value for various compounds in accordance with the present invention was determined, namely, that dose which, when administered orally, reduces by 50% the spasms of pain caused by the intraperitoneal injection of a solution of acetic acid.

[2] = tested on: carrageenin-induced edema; assay: Anti-inflammatory activity, carrageenin-induced edema test (Winter et al.); assay type: in vivo; conditions: rat, oral; dose inhibiting edema by 30%; read-out: AD30, Carrageenin
Description: The protection afforded, by oral administration of the compound to a rat against edema induced by injecting a suspension of carrageenin under the arch of the foot of the animal was investigated. The AD30 dose is that which inhibits the edema by 30%.

[3] = tested on: erythema produced by ultra violet radiation; assay: Protective effect against erythema from ultra violet radiation (Winder et al.); assay type: in vivo, albino guinea pigs; conditions: Cavia porcellus; albino guinea pig, oral; amount reducing erythema by 50%; read-out: AD50, U.V.
Description: D--The protective effect against inflammation resulting from exposure to radiation was determined in albino guinea pigs using the method of Winder et al (Arch. Inv. Pharmacodyn. 1958, Vol. 116, page 261). The AD50 value was determined for the test substance, namely the amount which, when administered to the animal orally, reduced by 50% the erythema produced by exposing the shaved dorsal skin of the guinea pig to ultra violet radiation.

[4] = Acute toxicity, LD 50 (oral route), mice; conditions: mouse, in vivo
Description: A--The substances are of low toxicity. For example, the LD 50 value (oral route), determined in mice, of various compounds in accordance with the present invention are shown in column A of Table I.

[5] = Experiment B: clinical case studies, analgesic activity, oral administration; assay type: in vivo; conditions: for Tolerance, Biological / Tolerance, Clinical: NAD = Nothing Abnormal Discovered
Description: as §1
The following case studies relate to the analgesic activity associated with the oral administration of methyl 5-(4'-dimethylaminobenzoyl)-indan-2-carboxylate.
Diagnosis: Painful episode against a background of arthrosis of the cervical spine
Treatment: 600 mg/day for 3 weeks
Diagnosis: Pains in the right hip when pressure applied, secondary to aseptic osteonecrosis
Treatment: 600 mg/day for 15 days
Diagnosis: Arthrosis of the right hip resembling Paget's Disease

platelets = assay: In vitro inhibition of platelet aggregation induced by collagen (Born); assay type: cell-based; conditions: read-out: minimal active concentration, Platelet Aggregation Induced By Collagen
Description: E--The anti-inflammatory activity was also determined by the aggregation-inhibiting effect of the compounds in accordance with the present invention, in vitro, on platelets the aggregation of which was induced by collagen, in accordance with the method of Born (Journal of Physiology, 1962, Vol. 162, page 67). It is known that compounds which inhibit the activity or quantity of prostaglandin synthetase will inhibit the formation of prostaglandin PGE2 and the inflammatory and pyretic effect thereof. Since prostaglandin PGE2 also causes an increase in platelet aggregation, this test is an effective indication of anti-inflammatory and anti-pyretic activity due to inhibition of prostaglandin synthetase.

[6] = Case 1, oral 200 mg, before treatment 100%
[7] = Case 2, oral 200 mg, before treatment 100%
[8] = Case 3, oral 200 mg, before treatment 100%
[9] = Case 1, arthrosis of the cervical spine, oral 600 mg/day for 3 weeks
[10] = Case 1, oral 600 mg/day for 3 weeks
[11] = Case 2, hip pain secondary to aseptic osteonecrosis, oral 600 mg/day for 15 days
[12] = Case 2, oral 600 mg/day for 15 days
[13] = Case 3, arthrosis of the right hip, oral 600 mg/day for 15 days
[14] = Case 3, oral 600 mg/day for 15 days

## CCN(CC)CCOC(=O)C1Cc2ccc(C(=O)c3cccs3)cc2C1 (centres unmarked) [2'-(N,N-diethylaminoethyl) 5-(2'-thenoyl)-indan-2-carboxylate]
Platelet aggregation; Case 1, oral 200 mg
  second phase of aggregation with ADP: Inhibition
Platelet aggregation; [6]
  Aggregation with collagen, 1 h after taking 200 mg: 0%
  Aggregation with collagen, 3 h after taking 200 mg: 0%
Platelet aggregation; Case 1, oral, 24 h after last dose, before treatment 100%
  Aggregation with collagen 24 hours after the last dose: 10%
Platelet aggregation; Case 2, oral 200 mg
  second phase of aggregation with ADP: 0%
Platelet aggregation; [7]
  Aggregation with collagen, 1 h after taking 200 mg: 10%
  Aggregation with collagen, 3 h after taking 200 mg: 10%
Platelet aggregation; Case 2, oral, 24 h after last dose, before treatment 100%
  Aggregation with collagen 24 hours after last dose: 15%
Platelet aggregation; Case 3, oral 200 mg
  second phase of aggregation with ADP: Inhibition
Platelet aggregation; [8]
  Aggregation with collagen, 1 h after taking 200 mg: 0%
  Aggregation with collagen, 3 h after taking 200 mg: 0%
Platelet aggregation; Case 3, oral, 24 h after last dose, before treatment 100%
  Aggregation with collagen 24 hours after last dose: 0%

## COC(=O)C1Cc2ccc(C(=O)c3ccc(N(C)C)cc3)cc2C1 (centres unmarked) [Methyl 5-(4'-dimethylaminobenzoyl)-indan-2-carboxylate]
[1]
  ED50: 2.5 mg/kg
[2]
  ED30: 12 mg/kg
[3]
  ED50: 24 mg/kg
[4]
  LD50: 1450 mg/kg
[5]; [9]
  Conclusion: Good result
  Length of relief: 4 h
  Time taken to relieve pain: 30 min
[5]; [10]
  Tolerance, Biological: NAD
  Tolerance, Clinical: NAD (Nothing Abnormal Discovered)
[5]; [11]
  Conclusion: Very good result
  Length of relief: 4 h
  Time to relieve pain: less than 15 minutes
[5]; [12]
  Tolerance, Biological: NAD
  Tolerance, Clinical: NAD
[5]; [13]
  Conclusion: Good result
  Length of relief: 2 h
  Time to relieve pain: 30 min
[5]; [14]
  Tolerance, Biological: NAD
  Tolerance, Clinical: NAD
platelets
  minimal effective concentration: 0.25 µg/mL
